Values of other authors in PubChem BioAssay AID1259409 (Chemical Carcinogenesis Research Information System (CCRIS), 2018).

Test system: rodent chemically induced tumor inhibition, incidence and multiplicity
Assay: CCRIS tumor inhibitor studies

## COc1cc(/C=C/C(=O)O)ccc1O
Carcinogen: AZOXYMETHANE [25843-45-2], Dose [Inhibitor]: 0, 500 PPM IN DIET FOR 23 WK BEGINNING POST LAST CARCINOGEN DOSE (STUDY DURATION: 35 WK), Route [Inhibitor]: ORAL, Species: RAT, Strain/Sex: F344/MALE, Target Tissue: Type of Lesion: LARGE INTESTINE: TUMOR, Dose [Carcinogen]: 15 MG/KG 3X/WK FOR 12 WK (STUDY DURATION: 35 WK), Promoter: NONE
  tumour outcome (control, treated, inhibition, significance): 11%, 32%, -190%, not significant
Carcinogen: AZOXYMETHANE [25843-45-2], Dose [Inhibitor]: 0, 500 PPM IN DIET FOR 23 WK BEGINNING POST LAST CARCINOGEN DOSE (STUDY DURATION: 35 WK), Route [Inhibitor]: ORAL, Species: RAT, Strain/Sex: F344/MALE, Target Tissue: Type of Lesion: SMALL INTESTINE: TUMOR, Dose [Carcinogen]: 15 MG/KG 3X/WK FOR 12 WK (STUDY DURATION: 35 WK), Promoter: NONE
  tumour outcome (control, treated, inhibition, significance): 18%, 27%, -50%, not significant
Carcinogen: AZOXYMETHANE [25843-45-2], Dose [Inhibitor]: 250 PPM IN DIET FOR 4 WK BEGINNING 1 WK PRIOR TO FIRST CARCINOGEN DOSE (STUDY DURATION: 35 WK), Route [Inhibitor]: ORAL, Species: RAT, Strain/Sex: F344/MALE, Target Tissue: Type of Lesion: LARGE INTESTINE: TUMOR, Dose [Carcinogen]: 15 MG/KG 1X/WK FOR 3 WK (STUDY DURATION: 35 WK), Promoter: NONE
  tumour outcome (control, treated, inhibition, significance): 59%, 32%, 46%, not significant
Carcinogen: AZOXYMETHANE [25843-45-2], Dose [Inhibitor]: 250 PPM IN DIET FOR 4 WK BEGINNING 1 WK PRIOR TO FIRST CARCINOGEN DOSE (STUDY DURATION: 35 WK), Route [Inhibitor]: ORAL, Species: RAT, Strain/Sex: F344/MALE, Target Tissue: Type of Lesion: SMALL INTESTINE: TUMOR, Dose [Carcinogen]: 15 MG/KG 1X/WK FOR 3 WK (STUDY DURATION: 35 WK), Promoter: NONE
  tumour outcome (control, treated, inhibition, significance): 23%, 5%, 78%, not significant
Carcinogen: AZOXYMETHANE [25843-45-2], Dose [Inhibitor]: 250 PPM IN DIET FOR 31 WK BEGINNING 1 WK POST LAST CARCINOGEN DOSE (STUDY DURATION: 35 WK), Route [Inhibitor]: ORAL, Species: RAT, Strain/Sex: F344/MALE, Target Tissue: Type of Lesion: LARGE INTESTINE: TUMOR, Dose [Carcinogen]: 15 MG/KG 1X/WK FOR 3 WK (STUDY DURATION: 35 WK), Promoter: NONE
  tumour outcome (control, treated, inhibition, significance): 59%, 41%, 31%, not significant
Carcinogen: AZOXYMETHANE [25843-45-2], Dose [Inhibitor]: 250 PPM IN DIET FOR 31 WK BEGINNING 1 WK POST LAST CARCINOGEN DOSE (STUDY DURATION: 35 WK), Route [Inhibitor]: ORAL, Species: RAT, Strain/Sex: F344/MALE, Target Tissue: Type of Lesion: SMALL INTESTINE: TUMOR, Dose [Carcinogen]: 15 MG/KG 1X/WK FOR 3 WK (STUDY DURATION: 35 WK), Promoter: NONE
  tumour outcome (control, treated, inhibition, significance): 23%, 23%, 0%, not significant
Carcinogen: AZOXYMETHANE [25843-45-2], Dose [Inhibitor]: 500 PPM IN DIET FOR 4 WK BEGINNING 1 WK PRIOR TO FIRST CARCINOGEN DOSE (STUDY DURATION: 35 WK), Route [Inhibitor]: ORAL, Species: RAT, Strain/Sex: F344/MALE, Target Tissue: Type of Lesion: LARGE INTESTINE: TUMOR, Dose [Carcinogen]: 15 MG/KG 1X/WK FOR 3 WK (STUDY DURATION: 35 WK), Promoter: NONE
  tumour outcome (control, treated, inhibition, significance): 59%, 32%, 46%, not significant
Carcinogen: AZOXYMETHANE [25843-45-2], Dose [Inhibitor]: 500 PPM IN DIET FOR 4 WK BEGINNING 1 WK PRIOR TO FIRST CARCINOGEN DOSE (STUDY DURATION: 35 WK), Route [Inhibitor]: ORAL, Species: RAT, Strain/Sex: F344/MALE, Target Tissue: Type of Lesion: SMALL INTESTINE: TUMOR, Dose [Carcinogen]: 15 MG/KG 1X/WK FOR 3 WK (STUDY DURATION: 35 WK), Promoter: NONE
  tumour outcome (control, treated, inhibition, significance): 23%, 5%, 78%, not significant
Carcinogen: AZOXYMETHANE [25843-45-2], Dose [Inhibitor]: 500 PPM IN DIET FOR 31 WK BEGINNING 1 WK POST LAST CARCINOGEN DOSE (STUDY DURATION: 35 WK), Route [Inhibitor]: ORAL, Species: RAT, Strain/Sex: F344/MALE, Target Tissue: Type of Lesion: LARGE INTESTINE: TUMOR, Dose [Carcinogen]: 15 MG/KG 1X/WK FOR 3 WK (STUDY DURATION: 35 WK), Promoter: NONE
  tumour outcome (control, treated, inhibition, significance): 59%, 36%, 39%, not significant
Carcinogen: AZOXYMETHANE [25843-45-2], Dose [Inhibitor]: 500 PPM IN DIET FOR 31 WK BEGINNING 1 WK POST LAST CARCINOGEN DOSE (STUDY DURATION: 35 WK), Route [Inhibitor]: ORAL, Species: RAT, Strain/Sex: F344/MALE, Target Tissue: Type of Lesion: SMALL INTESTINE: TUMOR, Dose [Carcinogen]: 15 MG/KG 1X/WK FOR 3 WK (STUDY DURATION: 35 WK), Promoter: NONE
  tumour outcome (control, treated, inhibition, significance): 23%, 27%, -17%, not significant
Carcinogen: BENZO[A]PYRENE, 50-32-8, Dose [Inhibitor]: 0.06 MMOL/G OF DIET DAILY STARTING 8 D BEFORE AND CONTINUING THROUGH 3 D AFTER CARCINOGEN TREATMENT FOLLOWED BY OBSERVAT, Route [Inhibitor]: ORAL, Species: MOUSE, Strain/Sex: ICR/FEMALE, Target Tissue: Type of Lesion: FORESTOMACH: NEOPLASM, Dose [Carcinogen]: 1 MG IN 0.2 ML CORN OIL 2/WK FOR 4 WK, Promoter: NONE USED
  tumour outcome (control, treated, inhibition, significance): 100%, 90%, 10%, not significant
Carcinogen: BENZO[A]PYRENE, 50-32-8, Dose [Inhibitor]: 100 MG/KG ADMINISTERED 1 HR BEFORE AND 6, 24, 48 AND 72 HR AFTER BENZO[A]PYRENE TREATMENT (STUDY DURATION: 6 MO), Route [Inhibitor]: INTRAPERITONEAL, Species: MOUSE, Strain/Sex: STRAIN-A/MALE, Target Tissue: Type of Lesion: LUNG: ADENOMA, Dose [Carcinogen]: 100 MG/KG ONCE, Promoter: NONE USED
  tumour outcome (control, treated, inhibition, significance): 18/18 (100%), 18/18 (100%), 0%, not significant
Carcinogen: BENZO[A]PYRENE, 50-32-8, Dose [Inhibitor]: 100 MG/KG ADMINISTERED 1 HR BEFORE AND 6, 24, 48 AND 72 HR AFTER CARCINOGEN TREATMENT FOLLOWED BY 6 MO OBSERVATION PERIO, Route [Inhibitor]: INTRAPERITONEAL, Species: MOUSE, Strain/Sex: STRAIN A/MALE, Target Tissue: Type of Lesion: LUNG: ADENOMA, Dose [Carcinogen]: 100 MG/KG ONCE, Promoter: NONE USED
  tumour outcome (control, treated, inhibition, significance): 18/18 (100%), 18/18 (100%), 0%, not significant
Carcinogen: N-NITROQUINOLINE-1-OXIDE, 56-57-5, Dose [Inhibitor]: 0, 500 PPM IN DIET FOR 7 WK BEGINNING 1 WK PRIOR TO START OF CARCINOGEN TREATMENT (STUDY DURATION: 32 WK), Route [Inhibitor]: ORAL, Species: RAT, Strain/Sex: F344\MALE, Target Tissue: Type of Lesion: TONGUE: CARCINOMA, Dose [Carcinogen]: 20 PPM IN DRINKING WATER FOR 5 WK, Promoter: NONE USED
  tumour outcome (control, treated, inhibition, significance): 9/15 (60%), 1/14 (7%), 88%, p=0.0035
